Columns and labels:
Experiment in all cases: KINOMEscan competition binding
Settings in all cases: compound 10.0 µM
RPS6KA2 KD1 (human) = RPS6KA2 KD1 (human) (UniProt Q15349)
DAPK1 (human) = DAPK1 (human) (UniProt P53355)
RPS6KA6 KD2 (human) = RPS6KA6 KD2 (human) (UniProt Q9UK32)
ERBB4 (human) = ERBB4 (human) (UniProt Q15303)
EPHB2 (human) = EPHB2 (human) (UniProt P29323)
MAP4K2 (human) = MAP4K2 (human) (UniProt Q12851)
STK10 (human) = STK10 (human) (UniProt O94804)
MAP3K12 (human) = MAP3K12 (human) (UniProt Q12852)
PRKG2 (human) = PRKG2 (human) (UniProt Q13237)
PRKG2 (human), sequence (Q13237 whole entry, looked up): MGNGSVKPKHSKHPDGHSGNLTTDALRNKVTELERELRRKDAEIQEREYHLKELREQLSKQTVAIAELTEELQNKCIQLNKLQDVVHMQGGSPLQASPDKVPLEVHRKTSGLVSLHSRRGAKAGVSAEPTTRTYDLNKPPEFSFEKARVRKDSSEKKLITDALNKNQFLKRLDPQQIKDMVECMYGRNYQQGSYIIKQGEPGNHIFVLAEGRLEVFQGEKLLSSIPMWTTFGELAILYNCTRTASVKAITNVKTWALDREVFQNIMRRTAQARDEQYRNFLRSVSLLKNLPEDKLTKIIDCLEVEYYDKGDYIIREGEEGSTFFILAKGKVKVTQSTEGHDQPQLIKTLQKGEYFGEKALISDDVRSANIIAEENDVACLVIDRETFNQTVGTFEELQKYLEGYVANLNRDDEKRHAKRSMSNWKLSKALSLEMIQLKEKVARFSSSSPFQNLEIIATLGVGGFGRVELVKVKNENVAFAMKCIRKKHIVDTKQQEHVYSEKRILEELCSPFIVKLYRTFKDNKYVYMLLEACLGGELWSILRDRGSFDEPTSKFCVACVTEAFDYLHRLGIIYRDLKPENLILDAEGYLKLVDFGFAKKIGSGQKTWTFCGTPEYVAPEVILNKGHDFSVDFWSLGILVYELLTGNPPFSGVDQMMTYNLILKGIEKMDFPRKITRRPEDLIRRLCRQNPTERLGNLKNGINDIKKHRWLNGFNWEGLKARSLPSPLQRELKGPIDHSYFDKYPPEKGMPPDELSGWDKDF

MAPK15 (human) = MAPK15 (human) (UniProt Q8TD08)
MAPK15 (human), sequence (Q8TD08 whole entry, looked up): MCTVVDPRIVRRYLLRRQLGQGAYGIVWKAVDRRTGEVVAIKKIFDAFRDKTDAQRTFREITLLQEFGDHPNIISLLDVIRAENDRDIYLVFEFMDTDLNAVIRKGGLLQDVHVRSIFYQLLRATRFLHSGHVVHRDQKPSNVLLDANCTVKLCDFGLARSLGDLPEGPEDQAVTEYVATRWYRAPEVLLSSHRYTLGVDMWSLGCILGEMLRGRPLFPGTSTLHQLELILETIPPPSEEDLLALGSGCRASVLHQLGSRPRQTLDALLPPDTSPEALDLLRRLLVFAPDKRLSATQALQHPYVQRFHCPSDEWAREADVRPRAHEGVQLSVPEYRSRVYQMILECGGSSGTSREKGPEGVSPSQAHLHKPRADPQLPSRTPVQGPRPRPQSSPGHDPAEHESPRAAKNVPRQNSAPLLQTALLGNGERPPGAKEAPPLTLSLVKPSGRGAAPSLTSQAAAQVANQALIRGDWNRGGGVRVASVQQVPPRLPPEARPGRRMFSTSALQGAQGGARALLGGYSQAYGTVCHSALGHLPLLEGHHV

CAMK4 (human) = CAMK4 (human) (UniProt Q16566)
NEK2 (human) = NEK2 (human) (UniProt P51955)
AKT1 (human) = AKT1 (human) (UniProt P31749)
FLT1 (human) = FLT1 (human) (UniProt P17948)
CAMK1D (human) = CAMK1D (human) (UniProt Q8IU85)
CDK11B (human) = CDK11B (human) (UniProt P21127)
PRKG1 (human) = PRKG1 (human) (UniProt Q13976)
MAPKAPK2 (human) = MAPKAPK2 (human) (UniProt P49137)
PIM3 (human) = PIM3 (human) (UniProt Q86V86)
ULK3 (human) = ULK3 (human) (UniProt Q6PHR2)
NTRK2 (human) = NTRK2 (human) (UniProt Q16620)
NUAK1 (human) = NUAK1 (human) (UniProt O60285)
DCLK3 (human) = DCLK3 (human) (UniProt Q9C098)
WEE1 (human) = WEE1 (human) (UniProt P30291)
WEE1 (human), sequence (P30291 whole entry, looked up): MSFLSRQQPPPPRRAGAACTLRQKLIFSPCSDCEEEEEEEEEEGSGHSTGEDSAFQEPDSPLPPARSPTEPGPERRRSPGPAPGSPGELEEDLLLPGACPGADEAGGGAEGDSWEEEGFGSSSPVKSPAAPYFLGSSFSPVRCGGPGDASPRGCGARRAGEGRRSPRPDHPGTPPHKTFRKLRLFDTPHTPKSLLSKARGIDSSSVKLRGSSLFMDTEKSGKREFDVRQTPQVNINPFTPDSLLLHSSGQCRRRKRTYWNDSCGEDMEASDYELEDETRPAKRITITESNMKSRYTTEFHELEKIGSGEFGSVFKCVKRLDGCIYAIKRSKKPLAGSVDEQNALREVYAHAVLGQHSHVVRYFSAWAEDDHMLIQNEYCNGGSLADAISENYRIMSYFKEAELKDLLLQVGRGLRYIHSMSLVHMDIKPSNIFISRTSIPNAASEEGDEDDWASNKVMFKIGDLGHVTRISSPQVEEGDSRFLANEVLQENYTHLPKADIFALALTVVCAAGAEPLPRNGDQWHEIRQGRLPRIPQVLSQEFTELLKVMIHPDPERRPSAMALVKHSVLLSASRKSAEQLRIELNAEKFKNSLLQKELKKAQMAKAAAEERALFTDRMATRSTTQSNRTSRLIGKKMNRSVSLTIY

RIPK4 (human) = RIPK4 (human) (UniProt P57078)
MYLK4 (human) = MYLK4 (human) (UniProt Q86YV6)
PRKCE (human) = PRKCE (human) (UniProt Q02156)
PHKG1 (human) = PHKG1 (human) (UniProt Q16816)
PHKG1 (human), sequence (Q16816 whole entry, looked up): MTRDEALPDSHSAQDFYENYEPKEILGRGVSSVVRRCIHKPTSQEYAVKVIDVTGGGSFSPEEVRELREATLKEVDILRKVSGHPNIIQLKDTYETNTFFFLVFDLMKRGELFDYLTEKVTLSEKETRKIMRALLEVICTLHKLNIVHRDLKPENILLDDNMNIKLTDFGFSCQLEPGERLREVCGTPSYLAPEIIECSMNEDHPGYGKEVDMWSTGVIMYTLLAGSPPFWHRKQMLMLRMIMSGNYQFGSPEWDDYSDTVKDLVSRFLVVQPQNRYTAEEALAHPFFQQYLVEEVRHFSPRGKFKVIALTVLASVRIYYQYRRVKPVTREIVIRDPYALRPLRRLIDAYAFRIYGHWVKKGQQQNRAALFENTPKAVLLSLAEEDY

RPS6KA5 KD2 (human) = RPS6KA5 KD2 (human) (UniProt O75582)
[1] = system: KIT (human), P10721 [D816V]
RET (human) = RET (human) (UniProt P07949)
ANKK1 (human) = ANKK1 (human) (UniProt Q8NFD2)
ANKK1 (human), sequence (Q8NFD2 whole entry, looked up): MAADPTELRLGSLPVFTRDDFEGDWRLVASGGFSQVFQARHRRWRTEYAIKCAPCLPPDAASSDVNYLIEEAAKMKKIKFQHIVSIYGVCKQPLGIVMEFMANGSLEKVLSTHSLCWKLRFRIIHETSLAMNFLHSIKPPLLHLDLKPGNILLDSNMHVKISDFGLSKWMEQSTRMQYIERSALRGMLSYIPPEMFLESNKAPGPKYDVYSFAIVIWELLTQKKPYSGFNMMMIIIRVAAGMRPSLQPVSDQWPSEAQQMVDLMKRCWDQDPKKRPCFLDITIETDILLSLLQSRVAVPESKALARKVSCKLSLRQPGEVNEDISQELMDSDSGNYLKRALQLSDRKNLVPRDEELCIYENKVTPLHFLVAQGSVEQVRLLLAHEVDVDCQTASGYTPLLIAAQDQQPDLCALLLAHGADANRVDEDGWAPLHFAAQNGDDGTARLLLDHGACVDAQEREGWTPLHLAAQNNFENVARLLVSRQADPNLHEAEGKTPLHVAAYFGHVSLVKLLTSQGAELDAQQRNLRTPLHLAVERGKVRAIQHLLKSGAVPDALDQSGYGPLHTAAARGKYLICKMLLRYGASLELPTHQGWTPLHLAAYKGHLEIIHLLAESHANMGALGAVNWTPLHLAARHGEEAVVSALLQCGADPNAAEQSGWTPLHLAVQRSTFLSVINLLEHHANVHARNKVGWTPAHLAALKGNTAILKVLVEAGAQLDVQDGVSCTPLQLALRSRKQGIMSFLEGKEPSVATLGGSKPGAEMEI

TEK (human) = TEK (human) (UniProt Q02763)
DCLK2 (human) = DCLK2 (human) (UniProt Q8N568)
LYN (human) = LYN (human) (UniProt P07948)
ACVRL1 (human) = ACVRL1 (human) (UniProt P37023)
MAPKAPK5 (human) = MAPKAPK5 (human) (UniProt Q8IW41)
MAPKAPK5 (human), sequence (Q8IW41 whole entry, looked up): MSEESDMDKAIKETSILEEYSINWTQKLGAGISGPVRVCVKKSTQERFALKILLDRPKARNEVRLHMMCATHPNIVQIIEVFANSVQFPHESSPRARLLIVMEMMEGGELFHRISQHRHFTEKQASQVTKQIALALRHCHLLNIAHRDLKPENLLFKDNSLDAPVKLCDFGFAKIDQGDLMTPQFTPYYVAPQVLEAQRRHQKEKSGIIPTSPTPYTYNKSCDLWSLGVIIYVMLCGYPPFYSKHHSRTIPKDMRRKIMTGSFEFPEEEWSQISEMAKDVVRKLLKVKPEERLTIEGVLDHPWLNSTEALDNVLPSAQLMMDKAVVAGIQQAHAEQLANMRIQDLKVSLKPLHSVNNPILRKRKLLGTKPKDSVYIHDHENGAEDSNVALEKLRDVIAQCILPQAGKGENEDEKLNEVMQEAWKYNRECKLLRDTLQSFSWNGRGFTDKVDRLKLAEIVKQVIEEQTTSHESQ

LATS2 (human) = LATS2 (human) (UniProt Q9NRM7)
CAMKK1 (human) = CAMKK1 (human) (UniProt Q8N5S9)
EPHA6 (human) = EPHA6 (human) (UniProt Q9UF33)

DAPK1 (human), sequence (P53355 whole entry, looked up): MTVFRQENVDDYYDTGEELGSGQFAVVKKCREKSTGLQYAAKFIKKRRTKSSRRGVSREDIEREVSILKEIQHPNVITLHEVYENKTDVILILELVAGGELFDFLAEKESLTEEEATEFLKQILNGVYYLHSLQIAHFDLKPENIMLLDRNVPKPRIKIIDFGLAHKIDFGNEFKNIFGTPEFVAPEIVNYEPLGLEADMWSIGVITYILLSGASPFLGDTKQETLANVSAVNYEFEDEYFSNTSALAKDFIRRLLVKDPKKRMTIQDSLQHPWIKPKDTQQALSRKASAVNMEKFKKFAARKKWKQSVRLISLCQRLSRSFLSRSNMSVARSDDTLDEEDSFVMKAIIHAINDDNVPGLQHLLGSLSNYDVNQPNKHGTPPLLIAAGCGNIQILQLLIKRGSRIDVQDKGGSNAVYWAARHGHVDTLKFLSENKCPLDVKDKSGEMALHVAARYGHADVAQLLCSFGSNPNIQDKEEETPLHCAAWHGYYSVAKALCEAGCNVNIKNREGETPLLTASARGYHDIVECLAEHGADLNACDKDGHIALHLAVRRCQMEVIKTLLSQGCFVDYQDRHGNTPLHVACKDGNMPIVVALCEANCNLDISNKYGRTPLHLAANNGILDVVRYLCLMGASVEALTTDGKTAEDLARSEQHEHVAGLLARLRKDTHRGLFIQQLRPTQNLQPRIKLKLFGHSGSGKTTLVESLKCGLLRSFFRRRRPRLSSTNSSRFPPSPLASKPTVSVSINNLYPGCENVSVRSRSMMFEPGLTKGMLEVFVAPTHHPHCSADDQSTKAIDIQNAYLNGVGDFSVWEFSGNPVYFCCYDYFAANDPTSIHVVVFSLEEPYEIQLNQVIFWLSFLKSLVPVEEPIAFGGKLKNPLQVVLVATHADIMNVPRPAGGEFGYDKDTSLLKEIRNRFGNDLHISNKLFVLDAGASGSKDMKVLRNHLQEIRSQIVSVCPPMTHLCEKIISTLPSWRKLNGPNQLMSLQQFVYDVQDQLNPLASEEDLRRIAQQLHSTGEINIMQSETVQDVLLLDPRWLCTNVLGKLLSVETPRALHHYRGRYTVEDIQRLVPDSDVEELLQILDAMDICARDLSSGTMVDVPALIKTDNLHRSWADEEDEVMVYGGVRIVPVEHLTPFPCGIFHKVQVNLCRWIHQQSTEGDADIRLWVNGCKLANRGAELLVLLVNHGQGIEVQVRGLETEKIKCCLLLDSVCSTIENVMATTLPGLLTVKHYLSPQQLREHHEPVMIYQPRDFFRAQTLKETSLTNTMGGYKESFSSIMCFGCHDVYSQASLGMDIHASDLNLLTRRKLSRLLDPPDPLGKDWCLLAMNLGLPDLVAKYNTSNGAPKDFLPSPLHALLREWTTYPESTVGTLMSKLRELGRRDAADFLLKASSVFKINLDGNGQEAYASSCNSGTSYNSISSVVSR

SMILES | kinase still bound, per cent of control (RPS6KA2 KD1 (human)) | kinase still bound, per cent of control (DAPK1 (human)) | kinase still bound, per cent of control (RPS6KA6 KD2 (human)) | kinase still bound, per cent of control (ERBB4 (human)) | kinase still bound, per cent of control (EPHB2 (human)) | kinase still bound, per cent of control (MAP4K2 (human)) | kinase still bound, per cent of control (STK10 (human)) | kinase still bound, per cent of control (MAP3K12 (human)) | kinase still bound, per cent of control (PRKG2 (human)) | kinase still bound, per cent of control (MAPK15 (human)) | kinase still bound, per cent of control (CAMK4 (human)) | kinase still bound, per cent of control (NEK2 (human)) | kinase still bound, per cent of control (AKT1 (human)) | kinase still bound, per cent of control (FLT1 (human)) | kinase still bound, per cent of control (CAMK1D (human)) | kinase still bound, per cent of control (CDK11B (human)) | kinase still bound, per cent of control (PRKG1 (human)) | kinase still bound, per cent of control (MAPKAPK2 (human)) | kinase still bound, per cent of control (PIM3 (human)) | kinase still bound, per cent of control (ULK3 (human)) | other results
Nc1ccc(-c2ccc3ncc4ccc(=O)n(-c5cccc(C(F)(F)F)c5)c4c3c2)cn1 | 100% | 91% | 70% | 100% | 98% | 68% | 100% | 100% | 89% | 18% | 100% | 100% | 100% | 100% | 100% | 100% | 83% | 100% | 100% | 100% | kinase still bound, per cent of control (NTRK2 (human)): 72%; kinase still bound, per cent of control (NUAK1 (human)): 83%; kinase still bound, per cent of control (DCLK3 (human)): 100%; kinase still bound, per cent of control (WEE1 (human)): 100%; kinase still bound, per cent of control (RIPK4 (human)): 100%; kinase still bound, per cent of control (MYLK4 (human)): 97%; kinase still bound, per cent of control (PRKCE (human)): 69%; kinase still bound, per cent of control (PHKG1 (human)): 100%; kinase still bound, per cent of control (RPS6KA5 KD2 (human)): 100%; kinase still bound, per cent of control [1]: 61%; kinase still bound, per cent of control (RET (human)): 100%; kinase still bound, per cent of control (ANKK1 (human)): 100%; kinase still bound, per cent of control (TEK (human)): 100%; kinase still bound, per cent of control (DCLK2 (human)): 98%; kinase still bound, per cent of control (LYN (human)): 100%; kinase still bound, per cent of control (ACVRL1 (human)): 59%; kinase still bound, per cent of control (MAPKAPK5 (human)): 100%; kinase still bound, per cent of control (LATS2 (human)): 100%; kinase still bound, per cent of control (CAMKK1 (human)): 94%; kinase still bound, per cent of control (EPHA6 (human)): 100%
COc1cc(N2CCN(C)CC2)ccc1Nc1nc(N)c(C(=O)c2c(Cl)cccc2Cl)s1 | 84% | 85% | 28% | 100% | 100% | 77% | 40% | 97% | 74% | 84% | 99% | 100% | 100% | 100% | 24% | 5.3% | 100% | 100% | 100% | 100% | kinase still bound, per cent of control (NTRK2 (human)): 80%; kinase still bound, per cent of control (NUAK1 (human)): 100%; kinase still bound, per cent of control (DCLK3 (human)): 14%; kinase still bound, per cent of control (WEE1 (human)): 100%; kinase still bound, per cent of control (RIPK4 (human)): 96%; kinase still bound, per cent of control (MYLK4 (human)): 100%; kinase still bound, per cent of control (PRKCE (human)): 68%; kinase still bound, per cent of control (PHKG1 (human)): 82%; kinase still bound, per cent of control (RPS6KA5 KD2 (human)): 96%; kinase still bound, per cent of control [1]: 92%; kinase still bound, per cent of control (RET (human)): 97%; kinase still bound, per cent of control (ANKK1 (human)): 96%; kinase still bound, per cent of control (TEK (human)): 88%; kinase still bound, per cent of control (DCLK2 (human)): 4.1%; kinase still bound, per cent of control (LYN (human)): 100%; kinase still bound, per cent of control (ACVRL1 (human)): 84%; kinase still bound, per cent of control (MAPKAPK5 (human)): 100%; kinase still bound, per cent of control (LATS2 (human)): 100%; kinase still bound, per cent of control (CAMKK1 (human)): 6.3%; kinase still bound, per cent of control (EPHA6 (human)): 99%
